Assay results from patent publication US20160256421A1, “COMPOSITION CONTAINING EUGENOL AS ACTIVE INGREDIENT FOR PREVENTING OR TREATING ATOPIC DERMATITIS” (SEOUL NATIONAL UNIVERSITY R&DB FOUNDATION, priority 2013, published 2016).

How the values were obtained:
[1] = tested on: histamine-induced pruritus; assay: Scratch test, histamine-induced pruritus, simultaneous intradermal injection of compound; format: in vivo, mice; details: 10 μM compound injected simultaneously with 500 μg/site histamine, 30 minutes, histamine only about 152, FIG. 11
Description: In order to confirm reactions to pruritus-inducing substances such as histamine or serotonin in the present invention, a behavior experiment was conducted. In order to induce scratching, histamine and serotonin which are known to induce itchy sensation in humans were used. Here, histamine or serotonin was diluted with sterilized saline solution. On the day before the experiment, experimental animals were anaesthetized by mixing zolitel and rompun at a ratio of 1:4 and injecting 1 mL/kg thereof, and hair on the nape areas of a 1.5 cm×1.5 cm square was removed using a clipper on the nape of experimental animals. On the day of the experiment, a box of 10 cm×20 cm×15 cm dimensions was produced and mice were stabilized for 30 minutes therein. Thereafter, 100 μL of solvents or the experimental substance was applied on the back of the neck of mice, and after 30 minutes, 50 μL of pruritus-inducing substances (500 μg/site of histamine or 10 μg/site of serotonin) was injected at the back of the neck of experimental animals via intradermal injection. Next, reactions of experimental animals were video-recorded for 30 minutes, and a scratch test was conducted by counting up and down of a hind paw of an experimental animal to the injected area in the back of the neck as one scratch. […]
As described in Experimental Example 4, in order to induce scratching, experimental animals in the control group were injected with 500 μg/site of histamine at the back of the neck via intradermal injection, and along with the histamine, the experimental group was simultaneously injected with 10 μM isoeugenol (mixture of cis and trans, 82 ng) and 10 μM methyleugenol (89 ng) as representative eugenol derivatives, as well as 10 μM eugenol (82 ng). Thereafter, the reactions of experimental animals were video-recorded for 30 minutes, and a scratch test was conducted by counting the action of going up and down of a hind paw of an experimental animal to the injected area in the back of the neck as one scratch.

[2] = tested on: atopic dermatitis animal models (oxalozone-induced); assay: Visual inspection of dermal recovery in atopic dermatitis animal models; format: in vivo, balb/c nude mice; details: 200 μL of 3 wt % eugenol cream, same time of a day for a week, FIG. 2
Source text: 7-week-old male C57/BL6 mice were used in the present experiment, and in order to produce atopic dermatitis models, 7-week-old male balb/c nude mice were purchased from Orient Bio (Korea) and used. The method described in the manuscript of Kuraishi et al., presented the original form of mouse models developed in the present invention (Kuraishi et al., 1995). The group consisting of male BL6/C57 mice weighing 20 g to 23 g was used in the experiment. The experiment proceeded after experimental animals were accustomed to the conventional environment of 23±2° C. and 55±15% humidity for 3 days, in which light was constrained from 8 pm to 8 am, and were given ad libitum access to food and water. Atopic dermatitis animal models were produced with reference to Hatano et al. (2011), and it is known that TRPV1 is mediated in the developmental mechanism. Particularly, balb/c nude mice were used to produce the atopic dermatitis animal models. In the first two days, 50 μL of 5% oxalozone was treated to sensitize the back of the neck of experimental animals, and a week of recovery followed. In the next 4 weeks, 60 μL of 0.5% oxalozone was treated for a total of 12 times to complete atopic dermatitis animal models (FIG. 1). […]

[3] = cited from earlier work
[4] = tested on: heat pain (capsaicin receptors); assay: Hargreaves test, acute heat pain reactions; format: in vivo, mice; details: 3 wt % eugenol compared to the base cream
Description: In order to examine whether 3 wt % eugenol acts on capsaicin receptors and effects behavioral reactions to heat stimulation, Hargreaves test was conducted. With reference to Hargreaves et al. (1988), heat stimulation by light was delivered to a hind paw of a subject, and the corresponding avoidance reaction time was measured.

[5] = tested on: histamine-induced pruritus; assay: Scratch test, histamine-induced pruritus, cream applied; format: in vivo, mice; details: histamine 500 μg intradermal
Source text: (§1) 7-week-old male C57/BL6 mice were used in the present experiment, and in order to produce atopic dermatitis models, 7-week-old male balb/c nude mice were purchased from Orient Bio (Korea) and used. The method described in the manuscript of Kuraishi et al., presented the original form of mouse models developed in the present invention (Kuraishi et al., 1995). The group consisting of male BL6/C57 mice weighing 20 g to 23 g was used in the experiment. The experiment proceeded after experimental animals were accustomed to the conventional environment of 23±2° C. and 55±15% humidity for 3 days, in which light was constrained from 8 pm to 8 am, and were given ad libitum access to food and water. In order to confirm reactions to pruritus-inducing substances such as histamine or serotonin in the present invention, a behavior experiment was conducted. In order to induce scratching, histamine and serotonin which are known to induce itchy sensation in humans were used. Here, histamine or serotonin was diluted with sterilized saline solution. […] Next, reactions of experimental animals were video-recorded for 30 minutes, and a scratch test was conducted by counting up and down of a hind paw of an experimental animal to the injected area in the back of the neck as one scratch. […]

[6] = target: TRPV1 (Homo sapiens, UniProt Q8NER1); details: high concentration; cited from earlier work
TRPV1, sequence (Q8NER1 whole entry, species assumed): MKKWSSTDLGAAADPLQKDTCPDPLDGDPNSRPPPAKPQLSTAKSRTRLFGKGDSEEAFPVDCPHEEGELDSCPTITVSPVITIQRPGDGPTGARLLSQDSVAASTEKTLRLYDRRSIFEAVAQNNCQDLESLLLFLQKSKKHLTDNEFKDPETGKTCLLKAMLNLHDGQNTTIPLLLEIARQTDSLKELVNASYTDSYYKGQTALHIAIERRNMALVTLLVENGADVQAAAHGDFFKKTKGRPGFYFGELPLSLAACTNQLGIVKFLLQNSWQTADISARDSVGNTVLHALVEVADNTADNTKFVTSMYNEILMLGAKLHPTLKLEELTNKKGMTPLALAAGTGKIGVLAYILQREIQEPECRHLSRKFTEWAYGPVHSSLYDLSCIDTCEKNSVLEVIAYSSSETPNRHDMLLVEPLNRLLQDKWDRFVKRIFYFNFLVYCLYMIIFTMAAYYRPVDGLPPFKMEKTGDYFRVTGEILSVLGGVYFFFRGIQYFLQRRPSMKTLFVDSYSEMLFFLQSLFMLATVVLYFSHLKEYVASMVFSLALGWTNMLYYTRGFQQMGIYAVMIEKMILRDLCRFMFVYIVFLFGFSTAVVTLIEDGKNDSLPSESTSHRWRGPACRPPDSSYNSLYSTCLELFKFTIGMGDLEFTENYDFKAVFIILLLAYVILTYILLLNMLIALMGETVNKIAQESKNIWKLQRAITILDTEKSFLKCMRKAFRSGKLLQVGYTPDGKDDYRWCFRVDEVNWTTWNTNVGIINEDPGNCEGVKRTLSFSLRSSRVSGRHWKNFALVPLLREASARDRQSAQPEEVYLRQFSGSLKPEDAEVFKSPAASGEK

[7] = tested on: mechanical pain; assay: von-Frey test, acute mechanical pain reactions; format: in vivo, mice; details: 3 wt % eugenol
Description: However, effects of blocking pain by blocking Na ion channels are induced by blocking all the dermal sensory information and thus are non-specific phenomena. Therefore, von-Frey test was conducted to examine whether antipruritic effects are induced by reduced excitation via blocking voltage-dependent Na ion channels of sensory nerves by confirming whether eugenol at a pruritus-effective concentration blocks pain reactions. With reference to Chaplan et al. (1994), hind paws of experimental animals were stimulated with von-Frey filaments (0.02 g to 4 g), and 50% avoidance reactions were measured. Through this process, avoidance reactions to mechanical stimulations were measured and assessed as a reaction threshold.

[8] = tested on: serotonin-induced pruritus; assay: Scratch test, serotonin-induced pruritus, cream applied; format: in vivo, mice; details: serotonin 10 μg
Source text: as §1

Compound | number of scratching on average [1] | dermal recovery from atopic dermatitis (visual inspection) [2] | solubility in organic solvents [3] | solubility in water [3] | avoidance reaction in response to heat pain (Hargreaves) [4] | reduction of pruritus reactions ([5]; 3 wt % eugenol cream, 30 minutes) | blocking effects on histamine-dependent pruritus ([5]; 10 wt % eugenol cream) | concentration at which TRPV1 is activated [6] [mM] | mechanical pain, 50% avoidance reaction threshold (von-Frey) [7] | antipruritic effects on serotonin-induced pruritus ([8]; 100 μL of 3 wt % eugenol) | antipruritic effects on serotonin-induced pruritus ([8]; 100 μL of 10 wt % eugenol)
CC=Cc1ccc(O)c(OC)c1 (racemic) [isoeugenol, (E) or (Z)-2-methoxy-4-(prop-1-enyl)phenol] | about 80 times |  |  |  |  |  |  |  |  |  | 
C=CCc1ccc(O)c(OC)c1 [eugenol, 4-allyl-2-methoxyphenol] | about 45 times | recovered skin to the normal level | high | low | significantly increased avoidance reaction | at least 40% | increased blocking effects on histamine-dependent pruritus | ≥ 1 | did not show a significant difference | antipruritic effects were not observed | showed blocking of serotonin-induced pruritus
C=CCc1ccc(OC)c(OC)c1 [methyleugenol] | 99 times |  |  |  |  |  |  |  |  |  | 
